The target of one data set is cdk4/D (Homo sapiens, UniProt P11802). Briefly: Cyclin-Dependent Kinase 4 (cdk4) Assay. The class given is biochemical.
For the next data set, the target named is Cdk5/p25 (Homo sapiens, UniProt Q00535). Briefly: Cyclin-Dependent Kinase 5 (cdk5) Assay. The class given is biochemical. The procedure: Cyclin-Dependent Kinase 5 (cdk5) Assay
Enzyme assays for IC50 determinations and kinetic evaluation were performed in 96-well filter plates (Millipore MAPH NOB 10). […] All components except histone and ATP were added to wells, and the plate was placed on a shaker for 5 minutes. The reaction was started by adding histone and [^32P]ATP, and the plate was shaken at 30° C. for 45 minutes. The reaction was terminated by addition of 0.1 mL of 150 mM phosphoric acid. The plate was kept at 4° C. for 30 minutes to allow substrate to precipitate. The wells were then washed three times with 0.2 mL of 75 mM phosphoric acid and ^32P incorporation was determined with a beta plate counter (Wallac Inc, Gaithersburg, Md.).

A further data set deals with cdk2/cyclinE (Homo sapiens, UniProt P24941). Briefly: Cyclin-Dependent Kinase Assay cdk2/cyclinE.
Another data set concerns the target cdk2/cyclinA (Homo sapiens, UniProt P24941). Briefly: Cyclin-Dependent Kinase Assay cdk2/cyclinA.
For the next data set, the target named is cdc2/cyclinB (Homo sapiens, UniProt P06493). Briefly: Cyclin-Dependent Kinase Assay cdc2/cyclinB.
cdc2/cyclinB, sequence (P06493 whole entry): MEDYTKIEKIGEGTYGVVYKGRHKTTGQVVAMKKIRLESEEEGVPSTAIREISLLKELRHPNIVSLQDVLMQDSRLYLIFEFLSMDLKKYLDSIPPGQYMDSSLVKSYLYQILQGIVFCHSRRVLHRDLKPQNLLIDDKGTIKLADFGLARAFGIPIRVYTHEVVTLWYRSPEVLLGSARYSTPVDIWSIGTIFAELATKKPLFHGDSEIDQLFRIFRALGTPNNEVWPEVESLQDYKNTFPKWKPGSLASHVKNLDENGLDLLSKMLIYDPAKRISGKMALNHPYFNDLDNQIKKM
cdc2/cyclinB, sequence (P14635 whole entry, further chain): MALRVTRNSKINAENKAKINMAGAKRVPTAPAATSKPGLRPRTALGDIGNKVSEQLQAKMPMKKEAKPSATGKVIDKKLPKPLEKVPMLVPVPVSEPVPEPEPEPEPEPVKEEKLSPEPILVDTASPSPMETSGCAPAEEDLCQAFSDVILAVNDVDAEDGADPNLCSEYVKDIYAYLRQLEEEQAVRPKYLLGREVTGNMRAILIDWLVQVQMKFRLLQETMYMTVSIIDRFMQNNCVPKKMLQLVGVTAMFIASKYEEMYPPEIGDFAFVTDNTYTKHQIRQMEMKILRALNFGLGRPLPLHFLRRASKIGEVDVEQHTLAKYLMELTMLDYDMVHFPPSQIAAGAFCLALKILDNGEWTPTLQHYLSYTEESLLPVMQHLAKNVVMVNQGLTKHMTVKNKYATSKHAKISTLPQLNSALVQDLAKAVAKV

pIC50: −log10 of the molar value. Read-outs that look alike come from different tables or passages of the source.

cdk4/D, sequence (P11802 whole entry): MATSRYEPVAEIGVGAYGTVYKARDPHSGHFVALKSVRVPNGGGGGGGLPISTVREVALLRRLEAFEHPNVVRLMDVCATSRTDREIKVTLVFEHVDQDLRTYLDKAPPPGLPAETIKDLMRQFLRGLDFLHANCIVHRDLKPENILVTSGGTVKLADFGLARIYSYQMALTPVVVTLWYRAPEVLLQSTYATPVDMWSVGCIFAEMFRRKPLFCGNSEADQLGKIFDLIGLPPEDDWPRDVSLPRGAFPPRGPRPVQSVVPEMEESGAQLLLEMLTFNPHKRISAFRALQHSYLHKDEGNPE
cdk4/D, sequence (P24385 whole entry, further chain): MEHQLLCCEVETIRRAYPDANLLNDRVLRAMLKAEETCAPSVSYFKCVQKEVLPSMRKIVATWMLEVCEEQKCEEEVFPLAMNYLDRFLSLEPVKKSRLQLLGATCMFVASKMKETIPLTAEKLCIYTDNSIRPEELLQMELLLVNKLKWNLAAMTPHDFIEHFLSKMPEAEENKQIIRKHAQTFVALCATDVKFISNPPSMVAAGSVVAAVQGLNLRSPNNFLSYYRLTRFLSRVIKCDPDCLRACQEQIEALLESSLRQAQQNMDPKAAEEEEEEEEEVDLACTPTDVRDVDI

`O=c1ccc2cnc(Nc3ccccc3)nc2n1Cc1ccccc1` [Example 35, 8-Benzyl-2-phenylamino-8H-pyrido[2,3-d]pyrimidin-7-one] gave a melting point of 215 to 216 °C. On cdk4/D (Table 1, read-out: cdk4/D IC50), the pIC50 is 6.03. On Cdk5/p25 (Table 1), this molecule had a pIC50 of 6.51. The pIC50 against cdk2/cyclinE (cdk2/E IC50, Table 1) was 4.47.

With `Cn1c(=O)ccc2cnc(Nc3ccccc3)nc21` [Example 61, 8-Methyl-2-phenylamino-8H-pyrido[2,3-d]pyrimidin-7-one], the melting point fell in the range of 244 to 247 °C. Moreover, on cdk4/D (Table 3, read-out: Cdk4 IC50), the pIC50 is 5.26. The molecule also gave a pIC50 against Cdk5/p25 (Table 3) of 7.05. Further, the pIC50 against cdk2/cyclinE (Cdk2/E IC50, Table 3) is 5.77. This molecule showed a pIC50 against cdk2/cyclinA (Cdk2/A IC50, Table 3) of 5.94.

For the molecule `CCn1c(=O)ccc2cnc(Nc3ccc(F)cc3)nc21` [Example 88, 8-Ethyl-2-(4-fluorophenylamino)-8H-pyrido[2,3-d]pyrimidin-7-one], the melting point is 215 to 217 °C. Further, the pIC50 on cdk4/D (Table 3, read-out: Cdk4 IC50) was 5.91. The same molecule had a pIC50 at Cdk5/p25 (Table 1) of 7.28. Also, on Cdk5/p25 (Table 3), the pIC50 is 7.49. The same molecule showed a pIC50 at cdk2/cyclinE (Cdk2/E IC50, Table 3) of 6.25. The pIC50 against cdk2/cyclinA (Cdk2/A IC50, Table 3) is 6.38.

`CCn1c(=O)ccc2cnc(Nc3ccc(N(C)C)cc3)nc21` [Example 93, 2-(4-Dimethylamino-phenylamino)-8-ethyl-8H-pyrido[2,3-d]pyrimidin-7-one] yielded a melting point of 189 to 191 °C. This molecule had a pIC50 at Cdk5/p25 (Table 1) of 7.19.

The molecule `O=c1ccc2cnc(Nc3ccccc3)nc2n1C1CCCC1` [Example 108, 8-Cyclopentyl-2-phenylamino-8H-pyrido[2,3-d]pyrimidin-7-one] had a melting point of 188 to 192 °C. This molecule also gave a pIC50 against Cdk5/p25 (Table 1) of 7.59.

As to `COc1ccc(Nc2ncc3ccc(=O)n(C(C)C)c3n2)cc1` [Example 111, 8-Isopropyl-2-(4-methoxy-phenylamino)-8H-pyrido[2,3-d]pyrimidin-7-one], the melting point was in the range of 153 to 155 °C. Also, at cdk4/D (Table 3, read-out: Cdk4 IC50), the pIC50 is 6.21. The molecule further gave a pIC50 on Cdk5/p25 (Table 3) of 8.01. Also, at cdk2/cyclinE (Cdk2/E IC50, Table 3), the pIC50 was 6.24. This molecule also had a pIC50 on cdk2/cyclinA (Cdk2/A IC50, Table 3) of 6.92.

In turn, `CCN(CC)CCOc1ccc(Nc2ncc3ccc(=O)n(C4CCCC4)c3n2)cc1` [Example 117, 8-Cyclopentyl-2-[4-(2-diethylamino-ethoxy)-phenylamino]-8H-pyrido[2,3-d]pyrimidin-7-one] yielded a melting point of 105 to 107 °C. Further, at cdk4/D (Table 1, read-out: cdk4/D IC50), the pIC50 is 8.18. Besides, on Cdk5/p25 (Table 1), the pIC50 is 7.72. For the same molecule, the pIC50 at cdk2/cyclinE (cdk2/E IC50, Table 1) was 6.96. The molecule also gave a pIC50 on cdk2/cyclinA (cdk2/A IC50, Table 1) of 7.37.

`CCN(CC)CCOc1ccc(Nc2ncc3ccc(=O)n(-c4ccccc4)c3n2)cc1` [Example 118, 2-[4-(2-Diethylamino-ethoxy)-phenylamino]-8-phenyl-8H-pyrido[2,3-d]pyrimidin-7-one] displayed a melting point of 165 to 167 °C. The pIC50 at cdk4/D (Table 1, read-out: cdk4/D IC50) was 6.70. This molecule also gave a pIC50 against Cdk5/p25 (Table 1) of 6.63. Moreover, on cdk2/cyclinE (cdk2/E IC50, Table 1), the pIC50 was 5.89. At cdk2/cyclinA (cdk2/A IC50, Table 1), the pIC50 was 6.69.

Regarding `O=c1ccc2cnc(Nc3ccccc3)nc2n1C1CCCCC1` [Example 131, 8-Cyclohexyl-2-phenylamino-8H1-pyrido[2,3-d]pyrimidin-7-one], the melting point lay within 202 to 204 °C. The molecule further showed a pIC50 against Cdk5/p25 (Table 1) of 7.82.

`CCN(CC)CCOc1ccc(Nc2ncc3ccc(=O)n(C4CC4)c3n2)cc1` [Example 134, 8-Cyclopropyl-2-[4-(2-diethylamino-ethoxy)-phenylamino]-8H-pyrido[2,3-d]pyrimidin-7-one] came in with a melting point of 119 to 121 °C. Moreover, on cdk4/D (Table 1, read-out: cdk4/D IC50), the pIC50 was 7.28. At Cdk5/p25 (Table 1), the pIC50 was 6.49.

As to `O=c1ccc2cnc(Nc3ccccc3)nc2n1C1CC1` [Example 135, 8-Cyclopropyl-2-phenylamino-8H-pyrido[2,3-d]pyrimidin-7-one], the melting point lay within 191 to 193 °C. Also, the pIC50 at Cdk5/p25 (Table 1) is 6.31.

In the case of `CN1CCN(c2ccc(Nc3ncc4ccc(=O)n(C5CC5)c4n3)cc2)CC1` [Example 136, 8-Cyclopropyl-2-[4-(4-methyl-piperazin-1-yl)-phenylamino]-81H-pyrido[2,3-d]pyrimidin-7-one], the melting point lay within 210 to 211 °C. The molecule further had a pIC50 at Cdk5/p25 (Table 1) of 6.62.

In turn, `CN1CCN(c2ccc(Nc3ncc4ccc(=O)n(CCOCc5ccccc5)c4n3)cc2)CC1` [Example 140] displayed a melting point of 183 to 191 °C. The pIC50 on Cdk5/p25 (Table 1) was 5.29. For the same molecule, the pIC50 against cdk2/cyclinE (cdk2/E IC50, Table 1) was 4.63. The molecule also had a pIC50 against cdk2/cyclinA (cdk2/A IC50, Table 1) of 4.87.

As for `CN(C)c1ccc(Nc2ncc3ccc(=O)n(C4CCCCC4)c3n2)cc1` [Example 147, 8-Cyclohexyl-2-(4-dimethylamino-phenylamino)-8H-pyrido[2,3-d]pyrimidin-7-one], the melting point fell in the range of 204 to 205 °C. Besides, the pIC50 against Cdk5/p25 (Table 1) is 7.62.

In turn, `CC1CCCN(c2ccc(Nc3ncc4ccc(=O)n(C5CCCCC5)c4n3)cc2)C1` (centres unmarked) [Example 175, 8-Cyclohexyl-2-[4-(3-methyl-piperidin-1-yl)-phenylamino]-8H-pyrido[2,3-d]pyrimidin-7-one] showed a melting point of 189 to 190 °C. Besides, the pIC50 at cdk4/D (Table 1, read-out: cdk4/D IC50) is 6.57. On Cdk5/p25 (Table 1), this molecule gave a pIC50 of 6.16. The pIC50 at cdk2/cyclinE (cdk2/E IC50, Table 1) is 6.36. In addition, on cdk2/cyclinA (cdk2/A IC50, Table 1), the pIC50 was 6.15.

Consider `O=c1ccc2cnc(Nc3ccc(-n4cccc4)cc3)nc2n1C1CCCC1` [Example 190, 8-Cyclopentyl-2-(4-pyrrol-1-yl-phenylamino)-8H-pyrido[2,3-d]pyrimidin-7-one], for which the melting point was 189 to 190 °C. The pIC50 at cdk4/D (Table 1, read-out: cdk4/D IC50) is 6.86. Moreover, at Cdk5/p25 (Table 1), the pIC50 is 7.51. The pIC50 against cdk2/cyclinE (cdk2/E IC50, Table 1) was 6.92.

In the case of `Cc1cc(C)n(-c2ccc(Nc3ncc4ccc(=O)n(C5CCCC5)c4n3)cc2)n1` [Example 195, 8-Cyclopentyl-2-[4-(3,5-dimethyl-pyrazol-1-yl)-phenylamino]-8H-pyrido[2,3-d]pyrimidin-7-one], the melting point lay in the range of 169 to 171 °C. At cdk4/D (Table 1, read-out: cdk4/D IC50), the pIC50 was 6.88. This molecule showed a pIC50 against Cdk5/p25 (Table 1) of 6.81.

Regarding `O=c1ccc2cnc(Nc3ccc(N4CCC(CCO)CC4)cc3)nc2n1C1CCCC1` [Example 196], the melting point fell in the range of 199 to 200 °C. In addition, the pIC50 on cdk4/D (Table 1, read-out: cdk4/D IC50) is 7.77. On Cdk5/p25 (Table 1), this molecule showed a pIC50 of 6.91. At cdk2/cyclinE (cdk2/E IC50, Table 1), the pIC50 is 7.33.

With `O=c1ccc2cnc(Nc3ccc(N4CCC(CCCO)CC4)cc3)nc2n1C1CCCC1` [Example 197, 8-Cyclopentyl-2-{4-[4-(3-hydroxy-propyl)-piperidin-1-yl]-phenylamino]-8H-pyrido[2,3-d]pyrimidin-7-one], the melting point is 208 to 209 °C. In addition, the pIC50 at cdk4/D (Table 1, read-out: cdk4/D IC50) is 7.47. Moreover, on Cdk5/p25 (Table 1), the pIC50 was 6.90. In addition, the pIC50 against cdk2/cyclinE (cdk2/E IC50, Table 1) is 5.63. On cdc2/cyclinB, this molecule showed a pIC50 of 5.13.

Molecule `O=c1ccc2cnc(Nc3ccc(N4CCC(O)CC4)cc3)nc2n1C1CCCC1` [Example 198, 8-Cyclopentyl-2-[4-(4-hydroxy-piperidin-1-yl)-phenylamino]-8H-pyrido[2,3-d]pyrimidin-7-one] had a melting point of 216 to 217 °C. Also, the pIC50 on cdk4/D (Table 1, read-out: cdk4/D IC50) is 7.82. On Cdk5/p25 (Table 1), the pIC50 is 7.72. Also, the pIC50 against cdk2/cyclinE (cdk2/E IC50, Table 1) is 7.36. The molecule also gave a pIC50 against cdc2/cyclinB of 6.93.

In turn, `O=c1ccc2cnc(Nc3cccc(N4CCCCC4)c3)nc2n1C1CCCC1` [Example 202, 8-Cyclopentyl-2-(3-piperidin-1-yl-phenylamino)-8H-pyrido[2,3-d]pyrimidin-7-one] showed a melting point of 90 to 91 °C. For the same molecule, the pIC50 at cdk4/D (Table 1, read-out: cdk4/D IC50) is 6.18. On Cdk5/p25 (Table 1), this molecule showed a pIC50 of 7.11.

`O=c1ccc2cnc(Nc3cccc(N4CCCCC4)c3)nc2n1C1CCCCC1` [Example 203, 8-Cyclohexyl-2-(3-piperidin-1-yl-phenylamino)-8H-pyrido[2,3-d]pyrimidin-7-one]: the melting point is 164 to 165 °C. Besides, the pIC50 at cdk4/D (Table 1, read-out: cdk4/D IC50) is 6.30. Besides, at Cdk5/p25 (Table 1), the pIC50 was 7.08.

`O=c1ccc2cnc(Nc3ccc(N4CCCCC4)cc3)nc2n1C1CCOCC1` [Example 211, 2-(4-Piperidin-1-yl-phenylamino)-8-(tetrahydro-pyran-4-yl)-8H-pyrido[2,3-d]pyrimidin-7-one] yielded a melting point of 254 to 255 °C. For the same molecule, the pIC50 at cdk4/D (Table 1, read-out: cdk4/D IC50) was 6.82. On Cdk5/p25 (Table 1), this molecule showed a pIC50 of 6.47. On cdk2/cyclinE (cdk2/E IC50, Table 1), the pIC50 was 5.12. At cdk2/cyclinA (cdk2/A IC50, Table 1), this molecule showed a pIC50 of 6.24.

`O=c1ccc2cnc(Nc3ccc(N4CCC(CCCO)CC4)cc3)nc2n1C1CC2CCC1C2` (centres unmarked) [Example 214, 8-Bicyclo[2.2.1]hept-2-yl-2-{4-[4-(3-hydroxy-propyl)-piperidin-1-yl]-phenylamino}-8H-pyrido[2,3-d]pyrimidin-7-one] registered a melting point of 223 °C. In addition, the pIC50 at cdk4/D (Table 1, read-out: cdk4/D IC50) is 8.10. At Cdk5/p25 (Table 1), this molecule gave a pIC50 of 5.48. This molecule also had a pIC50 against cdk2/cyclinE (cdk2/E IC50, Table 1) of 6.90. Besides, on cdk2/cyclinA (cdk2/A IC50, Table 1), the pIC50 was 6.69.

In turn, `O=c1ccc2cnc(Nc3ccc(-c4ccccc4)cc3)nc2n1C1CC2CCC1C2` (centres unmarked) [Example 223, 8-Bicyclo[2.2.1]hept-2-yl-2-(biphenyl-4-ylamino)-8H-pyrido[2,3-d]pyrimidin-7-one] displayed a melting point of 255 to 257 °C. The molecule further had a pIC50 on Cdk5/p25 (Table 1) of 6.23. Moreover, the pIC50 on cdk2/cyclinE (cdk2/E IC50, Table 1) is 5.71. This molecule also had a pIC50 on cdk2/cyclinA (cdk2/A IC50, Table 1) of 4.74.

Broadly, the melting point is the temperature of the solid-liquid transition.
